How the values were obtained:
[1] = system: HepG2 cell line; assay: Extracytosolic LDH cytotoxicity assay in HepG2 cells; type: cell-based, human; conditions: HepG2, 100 and 10 μg/ml
Method: (§1) The HepG2 cell line, clone H20, was received from Prof. Mersch-Sundermann, Giessen University, and cultured as described in [2]. The cells were cultured in low glucose (1 g/l) Dulbecco's modified Eagle's medium (DMEM) with L-glutamine and 25 mM Hepes, which was mixed with 15% (v/v) heat-inactivated fetal calf serum (FCS) and gentamycin (30 μg/ml), in a moist atmosphere at 37+/−0.5° C., 5% CO2. The cells were trypsinized, washed with PBS (pH 7.4), gently centrifuged and then a cell suspension in a cell medium was prepared by forcing the sediment through a needle. The medium was changed every three to five days. The compounds Nos. 5 and 8 to be tested were dissolved in a concentration of 1 mg/ml in HepG2 medium, to which the serum-free supplement SerEx was added instead of FCS, and filtered through a 0.2 μm cellulose acetate filter.
The cells were seeded in 96-well microtiter plates (1×10^4 cells/well). After 24 h, the medium was removed and the cells were exposed to the compounds to be tested, in concentrations of 100 and 10 μg/ml, for 48 h. The cell metabolic activity was quantified as 2.5 mg/ml MTT in accordance with. The extracytosolic LDH [4] was quantified with a cytotoxicity assay.

[2] = system: human liver cells (HEPG2); assay: MTT cell metabolic (mitochondrial) activity in HepG2 liver cells; type: cell-based; conditions: for mitochondrial activity: HepG2, 10 and 100 μg/ml, incubation for 48 hours, MTT; for energy status: HepG2, shortened incubation time of 24 hours
Method: as §1
The cells were seeded in 96-well microtiter plates (1×10^4 cells/well). […] The cell metabolic activity was quantified as 2.5 mg/ml MTT in accordance with. The extracytosolic LDH [4] was quantified with a cytotoxicity assay.
FIG. 2: Influence of compounds No. 5 and No. 8 (10 and 100 μg/ml) on the mitochondrial activity of human liver cells (HEPG2) after incubation for 48 hours.
The measurement plotted in FIG. 2 is the relative mitochondrial dehydrogenase activity (untreated control=100%). The bars represent the means of a representative experiment with n=10.

[3] = system: Human primary keratinocytes (NHK); assay: MTT mitochondrial activity in human keratinocytes; type: cell-based; conditions: 10 μg/ml
Method: (§2) Human primary keratinocytes (NHK) were isolated from human skin obtained by surgical resection of Caucasian patients. In vitro tests relating to the mitochondrial activity, the BrdU incorporation and for necrotic effects by means of an LDH assay were carried out.
(§3) The investigations were carried out with cells of the 2nd to 6th passage. Both compound No. 5 and compound No. 8 increased in a concentration of 10 μg/ml both the mitochondrial activity and the proliferation (FIG. 3).
(§4) FIG. 3: Influence of compounds No. 5 and No. 8 (10 μg/ml) on the mitochondrial activity (A) and the mitotic proliferation (B) of HaCaT keratinocytes after incubation for 60 hours.
(§5) The measurement plotted in FIG. 3A is the relative mitochondrial dehydrogenase activity (untreated control=100%) and in FIG. 3 b is the relative mitochondrial proliferation rate (untreated control=100%).
(§6) The mitochondrial activity was investigated using the MTT assay, and the proliferation by BrdU-incorporation ELISA. The bars represent the standard errors with n=10. Negative control: untreated cells, positive control: fibroblast growth factor FGF.

[4] = system: Human primary keratinocytes (NHK); assay: BrdU incorporation proliferation in human keratinocytes; type: cell-based; conditions: 10 μg/ml
Method: as §2, §3, §4, §5, §6

[5] = system: Helicobacter pylori; assay: Adhesion of FITC-labeled Helicobacter pylori to human gastric mucosa; type: cell-based; conditions: for adhesion score / fluorescence intensity: FITC-labeled H. pylori on human gastric mucosa; for adhesion score: 1 mg/ml; for antiadhesive effect on Helicobacter pylori: bacteria incubated with compound 1 mg/ml, stomach tissue; for fluorescence intensity: untreated bacteria standardized to 100%
Method: Adhesion tests were carried out in accordance with. This entailed FITC-labeled bacteria being incubated with the compounds to be tested (1 mg/ml). Deparaffinized pieces of stomach tissue were incubated with the bacteria. Microorganisms which adhere to the epithelium were counted under a fluorescence microscope and compared with an untreated control.
The maximum adhesion, as found for example in the untreated control groups (negative control), was assigned a score of +++++, while lower adhesions were assigned scores ++++, +++, ++, + or −, the score found for the positive control (sialyllactose, [7]) being −.
FIG. 4: Fluorescence microscopes (200×) of a representative in situ experiment with FITC-labeled H. pylorion human gastric mucosa: (A) complete adhesion (+++++) of untreated bacteria, fluorescence intensity standardized to 100% (negative control), (B) positive control (−), fluorescence intensity 10% (C) compound No. 5 (++++), fluorescence intensity 78%, (D) compound No. 8 (+) fluorescence intensity 19%.

[6] = system: Human primary keratinocytes (NHK); assay: LDH assay for necrotic effects in human keratinocytes; type: cell-based
Method: as §2, §3

Row | Compound | necrotic cytotoxicity (LDH) [1] | mitochondrial activity [2] | energy status [2] | mitochondrial activity [3] | proliferation [4] | adhesion score [5] | antiadhesive effect on Helicobacter pylori [5] | fluorescence intensity [5] [%] | cytotoxicity [6]
1 | O=C(/C=C/c1ccc(O)c(O)c1)N[C@@H](Cc1c[nH]c2ccccc12)C(=O)O [Compound 5, (+)-N-[3′,4′-dihydroxy-(E)-cinnamoyl]-L-tryptophan] | no necrotic cytotoxicity was detectable | increased | no effect | increased | increased | ++++ | no effect | 78 | No cytotoxicity was detected
2 | O=C(O)C[C@H](NC(=O)/C=C/c1ccc(O)c(O)c1)C(=O)O [Compound 8, (+)-N-[3′,4′-dihydroxy-(E)-cinnamoyl]-L-aspartic acid] | no necrotic cytotoxicity was detectable | increased | significantly increased | increased | increased | + | almost complete suppression of adhesion | 19 | No cytotoxicity was detected
3 | O=C(/C=C/c1ccc(O)c(O)c1)N[C@@H](Cc1ccc(O)c(O)c1)C(=O)O [Compound 11, (−)-N-[3′,4′-dihydroxy-(E)-cinnamoyl]-3-hydroxy-L-tyrosine] |  | none of the effects described |  | none of the effects described | none of the effects described |  | none of the effects described |  | 
4 | sialyllactose [reference compound] |  |  |  |  |  | − |  | 10 | 

Source: patent US20100008976A1, “Medical Use of N-Phenylpropenoyl-Amino Acid Derivatives and Related Compounds” (Westfallsche Wilheims Universitat Munster, priority 2006, published 2010)
